The record followed here is patent US12331136B2, “Anti-aging sturgeon roe tetrapeptide and preparation method and application thereof” (Shenzhen Porshealth Bioengineering Co., Ltd., priority 2023, dated 2025).

Molecules are shown by their SMILES. Residues, ends and D or L forms follow the SMILES beside them. A value given as a limit tells only on which side of the number the result lay.

The nature of the series: Absorption experiment of NLPL in rats (blood LC-MS/MS). It is filed as in vivo. To be noted: SD rats, intragastric 50 mg/kg bw. On the procedure:
In this research, SD rats are used and divided into three groups: a normal group and sturgeon NLPL (SEQ ID NO: 9) groups (50 mg/kg bw of daily dosage). At 12 h before the experiment, the rats are fasted but allowed to drink water. At 15 min, 45 min, 90 min, 180 min and 360 min after intragastric administration, all rats are anesthetized with 3% pentobarbital sodium, subjected to blood sampling through the abdominal aorta, and then euthanized. The polypeptide samples are prepared by solid phase synthesis and desalted.
• (1) The required samples are taken out, thawed, and mixed uniformly by vortex. • (2) 40 μL of sample is taken from the mixed sample, added with 120 μL of methanol, then shaken for 10 min, and centrifuged at low temperature for 10 min. • (3) 70 μL of supernatant is taken out from the centrifuged sample for subsequent determination. 4.2.2.2 Preparation of Standard Solution
Chromatographic separation is performed by using Waters ACQUITY UPLC I-CLASS ultra-high performance liquid chromatography equipment. Specific conditions are as follows: chromatographic column: Waters UPLC HSS T3 (1.8 μm, 2.1 mm×100 mm)—mobile phase: phase A (water, 0.1% formic acid), phase B (methanol)—flow rate: 0.3 mL/min-injection volume: 5.0 μL-column temperature: 40° C.—single sample analysis time: 8 min.
Mass spectrometric detection is performed by using Waters XEVO TQ-XS series four-pole mass spectrometer. Specific conditions are as follows: positive ion source voltage: 3.0 kV-cone well voltage: 30 V-solvent removal temperature: 500° C.—solvent removal gas flow rate: 1000 L/h-cone well gas flow rate: 150 L/h.
Data are expressed in the form of Mean±SD. Data processing and significance analysis are performed by Graphpad. P<0.05 and P<0.01 indicate significant difference and extremely significant difference in data. The target peak area in the polypeptide metabolism data is calculated by using TargetLynx software, and an allowable error of retention time is 15 s. The calculation of concentration is based on a standard curve method to obtain quantitative results.

As a reminder, the AUC is the area under the concentration-time curve, a measure of exposure. Low values mean low exposure, high ones high exposure. On to `CC(C)C[C@H](NC(=O)[C@@H]1CCCN1C(=O)[C@H](CC(C)C)NC(=O)[C@@H](N)CC(N)=O)C(=O)O` [NLPL] (H-NLPL-OH; N-terminus and C-terminus assumed), for which the “time at which NLPL content in the blood reaches a maximum” value is reported as ≤ 45 min. Under “rat, blood, po, during the measurement time (to 360 min)”, this compound showed an AUC of 7.14 ng·h/mL. The Cmax (rat, blood, po, read-out: maximum NLPL content in the blood) is 1.65 ± 1.75 ng/mL.
